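Grown in 96-well plates, cells were treated for 48 hours with each compound at five concentrations. Insufficient inhibition: endpoint recorded as highest concentration tested. Abbreviation: GI50, concentration required for 50% inhibition of growth.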 Active and inactive are the calls of the source. Cut-off read from the data, not from the text of the source: active = GI50 up to about 1.1 µM and inactive = higher.
Columns and labels:
Assay in all cases: growth of human tumour cells (NCI), 48 h
A549 = tested on: A549
DLD-1 = tested on: DLD-1
HCC 2998 = tested on: HCC 2998
HCT-116 = tested on: HCT-116
HOP-18 = tested on: HOP-18
K562 = tested on: K562
NCI-H23 = tested on: NCI-H23
NCI-H522 = tested on: NCI-H522
OVCAR-4 = tested on: OVCAR-4
OVCAR-5 = tested on: OVCAR-5
SF-268 = tested on: SF-268
SF-295 = tested on: SF-295
SN12C = tested on: SN12C
SNB-78 = tested on: SNB-78
U-251 = tested on: U-251
UACC-62 = tested on: UACC-62
UO-31 = tested on: UO-31
HT-29 = tested on: HT-29
MOLT-4 = tested on: MOLT-4
NCI-H460 = tested on: NCI-H460

Row | SMILES | GI50 (A549) | GI50 (DLD-1) | GI50 (HCC 2998) | GI50 (HCT-116) | GI50 (HOP-18) | GI50 (K562) | GI50 (NCI-H23) | GI50 (NCI-H522) | GI50 (OVCAR-4) | GI50 (OVCAR-5) | GI50 (SF-268) | GI50 (SF-295) | GI50 (SN12C) | GI50 (SNB-78) | GI50 (U-251) | GI50 (UACC-62) | GI50 (UO-31) | GI50 (HT-29) | GI50 (MOLT-4) | GI50 (NCI-H460)
1 | Cc1cc2cccc(Cl)c2nc1C(=O)c1ccccc1 | > 100 µM (inactive) | > 100 µM (inactive) | > 100 µM (inactive) | > 100 µM (inactive) | 18.7 µM (inactive) | > 100 µM (inactive) | > 100 µM (inactive) | 41.2 µM (inactive) | 86.3 µM (inactive) | > 100 µM (inactive) | > 100 µM (inactive) | 18.9 µM (inactive) | > 100 µM (inactive) | > 100 µM (inactive) | > 100 µM (inactive) | > 100 µM (inactive) | > 100 µM (inactive) |  |  | 
2 | NC(=O)C(=O)N/N=C1/c2ccccc2CC1C1(O)C(=O)Nc2c(Cl)cc(Cl)cc21 (configuration not stated) | 69.7 µM (inactive) | > 100 µM (inactive) | > 100 µM (inactive) | > 100 µM (inactive) | > 100 µM (inactive) | 88.7 µM (inactive) | > 100 µM (inactive) | 61.4 µM (inactive) | > 100 µM (inactive) | > 100 µM (inactive) | > 100 µM (inactive) | > 100 µM (inactive) | > 100 µM (inactive) | > 100 µM (inactive) | > 100 µM (inactive) | > 100 µM (inactive) | > 100 µM (inactive) | > 100 µM (inactive) | > 100 µM (inactive) | > 100 µM (inactive)
3 | CCOC(=O)C1C(c2cc(OC)c(O)c(OC)c2)c2cc3c(cc2OC1(C)O)OCO3 (configuration not stated) | 45.6 µM (inactive) | 42.6 µM (inactive) |  | 47.3 µM (inactive) | > 100 µM (inactive) | > 100 µM (inactive) | 66.5 µM (inactive) |  | 57.8 µM (inactive) |  |  | 35.2 µM (inactive) | 88.5 µM (inactive) | 81.7 µM (inactive) | 78.9 µM (inactive) | 43.9 µM (inactive) | 41.8 µM (inactive) | 41.1 µM (inactive) | 35 µM (inactive) | 48.2 µM (inactive)
4 | CC(=O)OC1C=C(C=O)C(O)(C=O)C2(C)CCCC(C)(C)C12 (configuration not stated) | 4.54 µM (inactive) | 1.05 µM (active) | 2.61 µM (inactive) | 0.989 µM (active) | 0.931 µM (active) | 0.809 µM (active) | 1.44 µM (inactive) | 0.456 µM (active) | 1.33 µM (inactive) | 4.55 µM (inactive) | 2.42 µM (inactive) | 3.07 µM (inactive) | 2.52 µM (inactive) | 2.67 µM (inactive) | 3.8 µM (inactive) | 2.76 µM (inactive) | 2.32 µM (inactive) | 1.39 µM (inactive) | 0.37 µM (active) | 1.64 µM (inactive)
5 | COc1ccc(C2C(=O)C(Cl)N2Nc2nc(C)cc(O)n2)cc1OC (configuration not stated) | 59.7 µM (inactive) |  | 42.6 µM (inactive) | 36.3 µM (inactive) | 6.41 µM (inactive) | 22 µM (inactive) | 25.3 µM (inactive) |  | 30.8 µM (inactive) | > 100 µM (inactive) | 17.9 µM (inactive) |  | 21.7 µM (inactive) | 21.1 µM (inactive) | 26.2 µM (inactive) | 28.4 µM (inactive) | 29.9 µM (inactive) | 46.1 µM (inactive) | 18.7 µM (inactive) | 26.8 µM (inactive)
6 | CCCCCCCCC1=CCC(CN(C)C)C1=O (configuration not stated) | > 100 µM (inactive) | 18.8 µM (inactive) | 14 µM (inactive) | 19.4 µM (inactive) |  | 9.82 µM (inactive) | 19.9 µM (inactive) | 16.7 µM (inactive) | 23.6 µM (inactive) | 33.3 µM (inactive) | 18.3 µM (inactive) | > 42.1 µM (inactive) | 17.1 µM (inactive) | 23.8 µM (inactive) | 18.1 µM (inactive) | 18.1 µM (inactive) | 17 µM (inactive) | 19.4 µM (inactive) | 19 µM (inactive) | 16.3 µM (inactive)
7 | CCCOC(=O)CNC(=O)OC(C)(C)C | > 100 µM (inactive) | > 100 µM (inactive) | > 100 µM (inactive) | > 100 µM (inactive) | 0.897 µM (active) | > 100 µM (inactive) | > 100 µM (inactive) | > 100 µM (inactive) | > 100 µM (inactive) | > 100 µM (inactive) | > 100 µM (inactive) | > 100 µM (inactive) |  | > 100 µM (inactive) | > 100 µM (inactive) | > 100 µM (inactive) | > 100 µM (inactive) | > 100 µM (inactive) |  | > 100 µM (inactive)
8 | CC(C)C1=CC2=CC[C@@H]3[C@](C)(CCC[C@@]3(C)C(=O)O)[C@H]2CC1 [ABIETIC ACID] | 50.6 µM (inactive) | > 67.9 µM (inactive) | > 80 µM (inactive) | 45.1 µM (inactive) | > 75 µM (inactive) | > 53 µM (inactive) | 45.3 µM (inactive) | 45.7 µM (inactive) | 59.6 µM (inactive) | > 75.5 µM (inactive) | > 69 µM (inactive) | 37.8 µM (inactive) | 62.4 µM (inactive) | 59.7 µM (inactive) | 50.1 µM (inactive) | 36.3 µM (inactive) | 43.7 µM (inactive) | 30.1 µM (inactive) | 40.2 µM (inactive) | 47 µM (inactive)
9 | CC(C)=CCc1c(O)ccc2ccc(=O)oc12 [OSTHENOL] | 5.83 µM (inactive) | > 100 µM (inactive) | 45.8 µM (inactive) | 57.4 µM (inactive) | 43.6 µM (inactive) | 37.6 µM (inactive) | 55.5 µM (inactive) | 48.2 µM (inactive) | 37.8 µM (inactive) | > 31.6 µM (inactive) | 33.7 µM (inactive) | 45.6 µM (inactive) | > 91.8 µM (inactive) | 32 µM (inactive) | 21.9 µM (inactive) | 44.6 µM (inactive) | 29.4 µM (inactive) | > 100 µM (inactive) | 26.9 µM (inactive) | > 73.5 µM (inactive)
